Results taken from US20070289032A1, “AGROBACTERIUM TRANSFORMATION OF GUAR” (SAMUEL ROBERTS NOBEL FOUNDATION, priority 2006, published 2007).

Assays:
Type in all cases: cell-based, Cyamopsis tetragonoloba
[1] = system: cotyledonary node explants of guar variety Lewis; assay: Multiple shoot regeneration from cotyledonary node explants on B5 medium with growth regulators (Lewis); conditions: percentage of explants that formed shoots; B5 shoot initiation medium, hormone concentrations in μM
Protocol: (§1) Explant preparation. Guar seeds of two American cultivars (Lewis and Kinman; e.g. (Undersander et al., 1991) were surface sterilized in concentrated sulphuric acid for 10 min followed by four washes in ice cold sterile distilled water. Subsequently the seeds were treated with 10% commercial bleach (containing 6.0% free chlorine) for 5 min with a few drops of Tween 20 and washed thoroughly three to four times in sterile distilled water. The sterile seeds were sown in magenta boxes on MS medium (Murashige and Skoog, 1962) with 3% sucrose, 0.8% agar, pH 5.8, and germination was continued for 7-9 days under a 16 h/8 h day/night regime at 25° C. Three-four mm long cotyledonary node explants comprising the meristematic zone were excised from the seedlings and used for shoot regeneration and transformation.
(§2) Shoot regeneration. Shoot regeneration was performed in two different phases; shoot initiation and shoot elongation. For shoot initiation, […] cotyledonary node explants were cultured with the adaxial surface touching the medium in Petri plates (FIG. 1A). The explants were cultured on Gamborg's B5 medium (Gamborg et al., 1968), supplemented with 3% (w/v) sucrose, 0.8% Phyto agar (Caisson Laboratories Inc.), pH 5.8 (shoot initiation medium, SIM) with different combinations of growth regulators (Table 1). […]

[2] = system: cotyledonary node explants of guar variety Kinman; assay: Multiple shoot regeneration from cotyledonary node explants on B5 medium with growth regulators (Kinman); conditions: percentage of explants that formed shoots; B5 shoot initiation medium, hormone concentrations in μM
Protocol: as §1, §2

[3] = system: regenerated guar shoots; assay: Root induction from regenerated guar shoots; conditions: regenerated guar shoots in rooting medium
Text: Root induction from the regenerated shoots. Non-transgenic shoots (two weeks old) from the shoot elongation medium were subjected to two different rooting procedures. Five 10 mm long shoots were harvested from the shoot elongation medium (SEM), the basal region was cut in order to remove any callus or necrotic tissue and the shoot ends were dipped either in a lawn of Agrobacterium rhizogenes (strain ARqua1) and transferred to root induction medium 1 (Farhaeus medium (Dazzo and Hubbell, 1982) solidified with 0.9-1.0% Gelrite) or directly transferred to root induction medium 2 (½ MS salts, Gamborg's B5 vitamins, 2.5% sucrose, 0.5-2.00 mg/l indole 3-butyric acid (IBA), agar 0.8%, pH 5.8) without any Agrobacterium rhizogenes inoculum. To prepare the A. rhizogenes lawn, a single colony was inoculated in 2 ml liquid Farhaeus medium containing 250 mg/l streptomycin in a 10 ml culture tube and cultured for 2-3 days at 28° C. on a rotary shaker. When the O.D. (600 nm) reached 1.0, 50-120 μl of the suspension was spread on a solid Farhaeus plate containing 250 mg/l streptomycin and 0.3% Gelrite. Within 3 days the bacteria formed a lawn on the plate which was subsequently used for infecting the shoot bases. Roots developed within 4 weeks and the rooted plants were transferred to the soil and grown in a growth chamber at 30° C. and 12 hrs of light.
Study of root anatomy. […]

SMILES | Shoot morphogenesis frequency (%) in the genotype Lewis [1] | Shoot morphogenesis frequency (%) in the genotype Kinman [2] | shoots that formed callus at the base [3]
c1ccc(CNc2ncnc3nc[nH]c23)cc1 [BAP 4.44, 6-benzylaminopurine] | 25.89% | 26.49% | –
O=C(Nc1ccccc1)Nc1cnns1 [TDZ 9.10, Thidiazuron] | 31.67% | 33.33% | –
O=C(O)CCCc1c[nH]c2ccccc12 [IBA, indole 3-butyric acid] | – | – | more than 90%
